{"source": "patent US20100087658A1", "about": "“METHODS AND INTERMEDIATES FOR SYNTHESIS OF SELECTIVE DPP-IV INHIBITORS” (Phenomix Corporation, priority 1996, published 2010)", "conditions": "crystalline form as isolated"}
{"smiles": "O=C([O-])CN(C(=O)OCc1ccccc1)C1CCN(C(=O)OCc2ccccc2)C1.[Na+]", "note": "(stereo not shown) [II-Cbz-Na, sodium salt of (1-carbobenzyloxypyrrolidin-3-yl)-N-carbobenzyloxyglycine]", "values": [{"measurement": "water solubility", "value": "highly water-soluble"}]}
